Tests used:
[1] = test system: Dunkin-Hartley guinea pigs; assay: Effect on the guinea pig cough model (ATP or histamine plus citric acid induced cough); assay type: in vivo; conditions: oral administration 30 minutes to 1 hour before inducing cough, 250 uM ATP or 0.6 mM histamine then 0.5 M citric acid nebulized, FIG. 1 to FIG. 3 (doses 5.1-92 mg/kg)
Protocol: In this test, dextromethorphan (purchased from Shanghai Send Pharmaceutical Technology Co., Ltd.) was used as a positive control compound. A clinical control compound having the following structure was employed, and it was prepared according to the method described in WO 2008/040652 A1:
Test animals were 300-350 g Dunkin-Hartley guinea pigs (purchased from Shanghai Jiagan Biotechnology Co., Ltd). After being purchased and adaptively fed for one week, the animals were randomly divided into groups based on body weight, each test group comprising 10-15 test animals The vehicle (a 0.5% CMCNa solution), the test compounds, the positive control compound (dextromethorphan) or the clinical control compound were orally administrated (compounds at test dosages were respectively added to a 0.5% CMCNa solution, uniformly dispersed through thorough ultrasonic treatment; the solution was vortex mixed again before administration to each animal, and the test dosage ranged from 1 mg/kg to 100 mg/kg). Administration was performed 30 minutes to 1 hour before inducing cough.
Method of inducing cough: test animals were put in a body pneumotachograph (Buxco) and allowed to stand for several minutes. […] Starting from the nebulization of citric acid, the number of coughs of the animals in 10 minutes were recorded by employing a small animal pulmonary function detector (Buxco).

P2X3 [2] = biological target: T1, P2X3 (Homo sapiens, UniProt P56373); assay: Inhibition on the P2X3-mediated current in 1321N1 cell line stably transfected with P2X3 (whole-cell patch clamp); assay type: cell-based; conditions: 1321N1 P2X3 stable transfected cells, clamping potential -60 mV, 5 minutes pre-treatment, Hill equation fit; read-out: IC50, inhibition of P2X3-mediated current induced by 10 μM Na2ATP
T1 construct: expressed in transfected cells; host or cells: 1321N1 cells, stably transfected
T1 sequence (P56373 1-397): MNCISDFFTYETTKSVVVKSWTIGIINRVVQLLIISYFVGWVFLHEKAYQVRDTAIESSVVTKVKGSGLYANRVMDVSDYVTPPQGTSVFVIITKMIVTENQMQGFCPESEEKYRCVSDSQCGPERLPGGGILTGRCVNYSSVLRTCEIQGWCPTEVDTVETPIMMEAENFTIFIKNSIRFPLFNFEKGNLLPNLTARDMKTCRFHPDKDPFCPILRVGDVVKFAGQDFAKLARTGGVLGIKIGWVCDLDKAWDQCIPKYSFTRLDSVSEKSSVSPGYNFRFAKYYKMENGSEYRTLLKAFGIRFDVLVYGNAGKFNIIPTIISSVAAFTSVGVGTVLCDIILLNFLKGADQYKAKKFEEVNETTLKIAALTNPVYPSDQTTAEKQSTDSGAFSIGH
Protocol: Membrane current was recorded by employing HEKA EPC-10 patch clamp amplifier and PATCHMASTER acquisition system. 1321N1 P2X3 stable transfected cells were transferred to an about 1 ml bath embedded in an inverted microscope platform, and an extracellular fluid (2 mM CaCl2, 1 mM MgCl2, 5 mM KCl, 155 mM NaCl, 12 mM glucose and 10 mM HEPES (pH=7.4)) was perfused by using a gravitational perfusion system. The P2X3-mediated current of a single cell was recorded in a whole cell recording mode. After formation of a gigaseal and rapture of the membrane, clamping potential was set at −60 mV. 10 μM Na2ATP was perfused for 5 seconds, and the P2X3-mediated current induced at this point was taken as a control current. The cells were then treated with a solution of compound 66 at a specific concentration (prepared with the extracellular fluid) for 5 minutes. The solution of compound 66 at this concentration and 10 μM Na2ATP were co-applied to induce a cell current (see FIG. 4 for the effect of the compound on the current), and an inhibition rate relative to the control current was calculated according to the following formula:
(§1) Inhibition Rate Relative to the Control Current=(1−I2/I1)*100%
(§2) wherein I1 represents the control current, and I2 represents the current after application of compound 66. […]

P2X3 [3] = biological target: T2, P2X3 (Rattus norvegicus, UniProt P49654); assay: Inhibition on the P2X3-mediated current in ex vivo cultured rat dorsal root ganglion (whole-cell patch clamp); assay type: cell-based; conditions: primary cells of rat DRG, clamping potential -60 mV, 5 minutes pre-treatment, Hill equation fit; read-out: IC50, inhibition of P2X3-mediated current induced by 30 μM a,b-Me ATP
T2 construct: The primary cells of rat DRG were transferred; endogenous in cells; host or cells: primary rat dorsal root ganglion cells, cultured ex vivo
T2 sequence (P49654 1-397): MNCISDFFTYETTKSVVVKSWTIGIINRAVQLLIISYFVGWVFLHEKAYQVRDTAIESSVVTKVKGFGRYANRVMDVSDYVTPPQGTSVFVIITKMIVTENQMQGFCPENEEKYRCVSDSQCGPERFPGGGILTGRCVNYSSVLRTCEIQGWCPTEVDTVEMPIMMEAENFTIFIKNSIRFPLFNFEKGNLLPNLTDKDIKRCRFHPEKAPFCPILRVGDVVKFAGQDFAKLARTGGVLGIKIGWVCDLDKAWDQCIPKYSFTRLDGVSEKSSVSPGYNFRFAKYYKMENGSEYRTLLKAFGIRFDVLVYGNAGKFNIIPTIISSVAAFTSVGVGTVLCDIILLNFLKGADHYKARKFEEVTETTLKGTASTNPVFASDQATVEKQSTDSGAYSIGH
Protocol: Membrane current was recorded by employing HEKA EPC-10 patch clamp amplifier and PATCHMASTER acquisition system. The primary cells of rat DRG were transferred to an about 1 ml bath embedded in an inverted microscope platform, and an extracellular fluid (2 mM CaCl2, 1 mM MgCl2, […] KCl, 155 mM NaCl, 12 mM glucose and 10 mM HEPES (pH=7.4)) was perfused by using a gravitational perfusion system. The P2X3-mediated current of a single cell was recorded in a whole cell recording mode. After formation of a gigaseal and rapture of the membrane, clamping potential was set at −60 mV. 30 μM a,b-Me ATP (also known as “α,β-meATP”) was perfused for 5 seconds, and the P2X3-mediated current induced at this point was taken as a control current. The cells were then treated with a solution of compound 66 at a specific concentration (prepared with the extracellular fluid) for 5 minutes. The solution of compound 66 at this concentration and 30 μM a,b-Me ATP were co-applied to induce a cell current (see FIG. 6 for the effect of the compound on the current), and an inhibition rate relative to the control current was calculated according to the following formula:
as §1, §2

IC50 (P2X3 [2]) | IC50 (P2X3 [3]) | SMILES | antitussive effect (number of coughs in 10 minutes) [1]
26.2 nM | 28.3 nM | C#Cc1cc(Oc2cnc(N)nc2N)c(C(C)C)cn1 [Compound 66] | significant antitussive effect, which was better than that of the clinical control compound
 |  | CNc1cc(Oc2cnc(N)nc2N)c(C(C)C)cn1 [Compound 22] | significant antitussive effect, which was better than that of the clinical control compound
